Assay results as given in US20240199676A1, “ANTIVIRAL COMPOUNDS AND METHODS OF MAKING AND USING THE SAME” (Gilead Sciences, Inc., priority 2022, published 2024).
pEC50: −log10 of the molar value.

Columns and labels:
[1] = GI S9 stability (Ex. Z), dog intestinal S9; assay type: in vitro ADME; details: pooled intestinal S9 fractions; dog intestinal S9, 1.0 mg/mL protein, 2 μM substrate, pH 7.4; read-out: GIS9 DOG T½ (per Ex. Z)
Summary of the method: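 Pooled intestinal S9 at 1.0 mg/mL protein in PBS, pH 7.4, with substrate at 2 μM final, sampled at 0–120 min and quenched in methanol/acetonitrile containing labetalol. Remaining parent quantified by LC-MS peak area ratio. Half-life from first-order exponential decline fit.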

[2] = test system: Human Rhinovirus 1B (HRV1B) in H1-HeLa cells; test: H1-HeLa HRV-CTG 384-well Assay (Ex. Y), HRV1B; assay type: cell-based; details: Rhinovirus A, 96 h; H1-HeLa cells, HRV1B MOI 0.5, 4 days, Celltiter-Glo; read-out: EC50 H1-HeLa_HRV1B_HRV-CTG 384-well Assay (per Ex. Y)
Description: Example Y: H1-HeLa HRV-CTG 384-well Assay
H1-Hela cell line (ATCC, Manassas, VA, Cat #CRL-1958) was maintained in Dulbecco's […] (DMEM) (Corning, New York, NY, Cat #15-018CM) supplemented with 10% fetal bovine serum (FBS) (Hyclone, Logan, UT, Cat #SH30071-03), and 1× Penicillin-Streptomycin-L-Glutamine (Corning, New York, NY, Cat #30-009-CI). Cells were passaged 2 times per week to maintain sub-confluent densities and were used for experiments at passage 5-30. The Human Rhinovirus 1B (HRV1B) (ATCC, Manassas, VA, Cat #VR-1645) , Human Rhinovirus 14 (HRV14) (ATCC, Manassas, VA, Cat #VR-284), and Human Rhinovirus 16 (HRV16) (ATCC, Manassas, VA, Cat #BR-283) was obtained through ATCC. Viral infection was monitored by determining viability of H1-HeLa cells as described below.
Test molecules are prepared in 100% DMSO in 384-well polypropylene plates (Greiner, Monroe, NC, Cat #784201) with 8 compounds per plate in grouped replicates of 4 at 10 serially diluted concentrations (1:3). The serially diluted compounds were transferred to low dead volume Echo plates (Labcyte, Sunnyvale, CA, Cat #LP-0200).
The test compounds were spotted to 384-well assay plates (Greiner, Monroe, NC, Cat#781091) at 200 nL per well using an Echo acoustic dispenser (Labcyte, Sunnyvale, CA). H1-HeLa cells were harvested and suspended in DMEM (supplemented with 2% FBS and 1× Penicillin-Streptomycin-L-Glutamine) and seeded to the pre-spotted assay plates at 5,000 cells per well in 30 μL. HRV1B, HRV14, and HRV16 was diluted in DMEM (supplemented with 2% FBS and 1× Penicillin-Streptomycin-L-Glutamine) at 97.1 million Infectious Units (IU) per mL, 151 million IU per mL and 221 million IU per mL respectively. 10 μL of virus per well was added to the assay plates containing cells and compounds, for an MOI of 0.5, 1.0, and 0.25 respectively. The assay plates were incubated for 4 days at 37° C. and 5% CO2. At the end of incubation, Celltiter-Glo (Promega, Madison, WI, Cat #(Ga7573) was prepared. The assay plates and Celltiter-Glo reagent were equilibrated to room temperature for at least 15 minutes. 40 μL per well of Celltiter-Glo reagent was added and the plates were incubated at room temperature for 15 minutes before reading the luminescence signal on an EnVision multimode plate reader (Perkin Elmer, Waltham, MA). Rupintrivir was used as positive control and DMSO was used as negative control. Values were normalized to the positive and negative controls (as 0% and 100% replication, respectively) and data was fitted using non-linear regression analysis by Gilead's dose response tool. The EC50 value for each compound was defined as the concentration reducing viral replication by 50%.

N#C[C@]1(COC(=O)C2CCCCC2)O[C@@H](c2ccc3c(N)ncnn23)[C@H](O)[C@@H]1O [Compound 19, ((2R,3S,4R,5S)-5-(4-aminopyrrolo[2,1-f][1,2,4]triazin-7-yl)-2-cyano-3,4-dihydroxytetrahydrofuran-2-yl)methyl cyclohexanecarboxylate]
half-life at 2 μM [1]: 48 min
pEC50 [2]: 5.39

CC(C)C(=O)OC[C@@]1(C#N)O[C@@H](c2ccc3c(N)ncnn23)[C@H](OC(=O)C(C)C)[C@@H]1OC(=O)C(C)C [Compound 20, (2R,3S,4S,5S)-5-(4-aminopyrrolo[2,1-f][1,2,4]triazin-7-yl)-2-cyano-2-((isobutyryloxy)methyl)tetrahydrofuran-3,4-diyl bis(2-methylpropanoate)]
half-life at 2 μM [1]: 3 min
pEC50 [2]: 5.02
